Assay results published in patent US8802597B2, “Herbicidal pyrimidines” (E I du Pont de Nemours and Company, priority 2003, dated 2014).
Like-named read-outs stand apart in the source and are kept apart here.

Legend:
Assay in all cases: Test C pre/postemergence
Type in all cases: in vivo
[1] = system: pigweed (Amaranthus retroflexus); settings: Amaranthus retroflexus; for pest or weed control at 31 g/ha: 31 g ai/ha; for pest or weed control at 62 g/ha: 62 g ai/ha; for pest or weed control at 125 g/ha: 125 g ai/ha; for pest or weed control at 250 g/ha: 250 g ai/ha
How it was run: (§1)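 Rating scale 0–100: 0 means no effect, 100 complete control; taken visually 12 to 14 days post-treatment versus controls. Pre- and postemergence greenhouse applications, postemergence at 1- to 4-leaf stage, non-phytotoxic solvent with surfactant as carrier.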

[2] = system: common ragweed (Ambrosia elatior); settings: Ambrosia artemisiifolia; for pest or weed control at 31 g/ha: 31 g ai/ha; for pest or weed control at 62 g/ha: 62 g ai/ha; for pest or weed control at 125 g/ha: 125 g ai/ha; for pest or weed control at 250 g/ha: 250 g ai/ha
How it was run: as §1

[3] = system: morningglory (Ipomoea coccinea); settings: Ipomoea; for pest or weed control at 31 g/ha: 31 g ai/ha; for pest or weed control at 62 g/ha: 62 g ai/ha; for pest or weed control at 125 g/ha: 125 g ai/ha; for pest or weed control at 250 g/ha: 250 g ai/ha
How it was run: as §1

[4] = system: Surinam grass (Brachiaria decumbens); settings: Urochloa decumbens; for pest or weed control at 125 g/ha: 125 g ai/ha; for pest or weed control at 31 g/ha: 31 g ai/ha; for pest or weed control at 62 g/ha: 62 g ai/ha; for pest or weed control at 250 g/ha: 250 g ai/ha
How it was run: as §1

[5] = system: johnsongrass (Sorghum halepense); settings: Sorghum halepense; for pest or weed control at 31 g/ha: 31 g ai/ha; for pest or weed control at 62 g/ha: 62 g ai/ha; for pest or weed control at 125 g/ha: 125 g ai/ha; for pest or weed control at 250 g/ha: 250 g ai/ha
How it was run: as §1

corn (Zea mays) = settings: Zea mays, post-emergence, Postemergence
How it was run: as §1

[6] = post-emergence, Postemergence, scale 0 to 100 (0 no effect, 100 complete control), read-out: Pigweed plant response rating
[7] = pre-emergence, Preemergence, scale 0 to 100, 0 no effect, 100 complete control, read-out: Plant response rating, Pigweed
[8] = pre-emergence, Preemergence, scale 0 to 100, read-out: Plant response rating, Pigweed
[9] = post-emergence, Postemergence, scale 0 to 100 (0 no effect, 100 complete control), read-out: Ragweed plant response rating
[10] = pre-emergence, Preemergence, scale 0 to 100, 0 no effect, 100 complete control, read-out: Plant response rating, Ragweed
[11] = pre-emergence, Preemergence, scale 0 to 100, read-out: Plant response rating, Ragweed
[12] = post-emergence, Postemergence, scale 0 to 100 (0 no effect, 100 complete control), read-out: Morningglory plant response rating
[13] = pre-emergence, Preemergence, scale 0 to 100, 0 no effect, 100 complete control, read-out: Plant response rating, Morningglory
[14] = pre-emergence, Preemergence, scale 0 to 100, read-out: Plant response rating, Morningglory
[15] = post-emergence, Postemergence, scale 0 to 100 (0 no effect, 100 complete control), read-out: Surinam Grass plant response rating
[16] = pre-emergence, Preemergence, scale 0 to 100, 0 no effect, 100 complete control, read-out: Plant response rating, Surinam Grass
[17] = pre-emergence, Preemergence, scale 0 to 100, read-out: Plant response rating, Surinam Grass
[18] = post-emergence, Postemergence, scale 0 to 100 (0 no effect, 100 complete control), read-out: Johnsongrass plant response rating
[19] = pre-emergence, Preemergence, scale 0 to 100, 0 no effect, 100 complete control, read-out: Plant response rating, Johnsongrass
[20] = pre-emergence, Preemergence, scale 0 to 100, read-out: Plant response rating, Johnsongrass

COC(=O)c1nc(C2CC2)nc(N)c1Cl [Compound 9, methyl 6-amino-5-chloro-2-cyclopropyl-4-pyrimidinecarboxylate]
pest or weed control at 31 g/ha ([1]; post-emergence, Postemergence, read-out: Plant response rating (scale of 0 to 100), Pigweed): 55% | pest or weed control at 62 g/ha [1, 6]: 70% | pest or weed control at 125 g/ha [1, 6]: 100% | pest or weed control at 250 g/ha ([1]; post-emergence, Postemergence, scale 0 to 100, read-out: Plant response rating, Pigweed): 100% | pest or weed control at 31 g/ha [1, 7]: 95% | pest or weed control at 62 g/ha [1, 7]: 95% | pest or weed control at 125 g/ha [1, 8]: 100% | pest or weed control at 250 g/ha [1, 8]: 100% | pest or weed control at 31 g/ha ([2]; post-emergence, Postemergence, read-out: Plant response rating (scale of 0 to 100), Ragweed): 70% | pest or weed control at 62 g/ha [2, 9]: 80% | pest or weed control at 125 g/ha [2, 9]: 95% | pest or weed control at 250 g/ha ([2]; post-emergence, Postemergence, scale 0 to 100, read-out: Plant response rating, Ragweed): 100% | pest or weed control at 31 g/ha [2, 10]: 100% | pest or weed control at 62 g/ha [2, 10]: 100% | pest or weed control at 125 g/ha [2, 11]: 100% | pest or weed control at 250 g/ha [2, 11]: 100% | pest or weed control at 31 g/ha ([3]; post-emergence, Postemergence, read-out: Plant response rating (scale of 0 to 100), Morningglory): 90% | pest or weed control at 62 g/ha [3, 12]: 95% | pest or weed control at 125 g/ha [3, 12]: 100% | pest or weed control at 250 g/ha ([3]; post-emergence, Postemergence, scale 0 to 100, read-out: Plant response rating, Morningglory): 100% | pest or weed control at 31 g/ha [3, 13]: 100% | pest or weed control at 62 g/ha [3, 13]: 100% | pest or weed control at 125 g/ha [3, 14]: 100% | pest or weed control at 250 g/ha [3, 14]: 100% | pest or weed control at 125 g/ha [4, 15]: 75% | pest or weed control at 31 g/ha ([4]; post-emergence, Postemergence, read-out: Plant response rating (scale of 0 to 100), Surinam Grass): 45% | pest or weed control at 62 g/ha [4, 15]: 65% | pest or weed control at 250 g/ha ([4]; post-emergence, Postemergence, scale 0 to 100, read-out: Plant response rating, Surinam Grass): 80% | pest or weed control at 31 g/ha [4, 16]: 95% | pest or weed control at 62 g/ha [4, 16]: 100% | pest or weed control at 125 g/ha [4, 17]: 100% | pest or weed control at 250 g/ha [4, 17]: 100% | pest or weed control at 31 g/ha ([5]; post-emergence, Postemergence, read-out: Plant response rating (scale of 0 to 100), Johnsongrass): 55% | pest or weed control at 62 g/ha [5, 18]: 65% | pest or weed control at 125 g/ha [5, 18]: 80% | pest or weed control at 250 g/ha ([5]; post-emergence, Postemergence, scale 0 to 100, read-out: Plant response rating, Johnsongrass): 85% | pest or weed control at 31 g/ha [5, 19]: 15% | pest or weed control at 62 g/ha [5, 19]: 45% | pest or weed control at 125 g/ha [5, 20]: 65% | pest or weed control at 250 g/ha [5, 20]: 90% | Corn plant response rating (crop injury, 0 = no effect, 100 = complete kill) at 31 g/ha (corn (Zea mays); 31 g ai/ha, read-out: Plant response rating (scale of 0 to 100), Corn): 45% | Corn plant response rating (crop injury, 0 = no effect, 100 = complete kill) at 62 g/ha (corn (Zea mays); 62 g ai/ha, scale 0 to 100 (0 no effect, 100 complete control), read-out: Corn plant response rating): 55%
